In ChEMBL document CHEMBL5154696, “Efficient targeted oncogenic KRASG12C degradation via first reversible-covalent PROTAC” (Eur J Med Chem, 2022):
Calls of active or inactive are those of the source. The calls are words filed in the database; no cut-off is given here.

Tests used:
A549 = assay: Antiproliferative activity against human A549 cells harboring KRAS G12S mutant measured after 72 hrs by CCK-8 assay; assay type: functional, cell-based; details: A549, 72 h
NCI-H23 = assay: Antiproliferative activity against human NCI-H23 cells harboring KRAS G12C mutant measured after 72 hrs by CCK-8 assay; assay type: functional, cell-based; details: NCI-H23, 72 h
NCI-H358 = assay: Antiproliferative activity against human NCI-H358 cells harboring KRAS G12C mutant measured after 72 hrs by CCK-8 assay; assay type: functional, cell-based; details: NCI-H358, 72 h
GTPase KRas = GTPase KRas (Homo sapiens, UniProt P01116, G12C); assay: Inhibition of KRAS G12C mutant (unknown origin) assessed as inhibition of SOS1-catalyzed nucleotide exchange measured by HTRF assay
Chain of GTPase KRas (P01116 whole entry G12C): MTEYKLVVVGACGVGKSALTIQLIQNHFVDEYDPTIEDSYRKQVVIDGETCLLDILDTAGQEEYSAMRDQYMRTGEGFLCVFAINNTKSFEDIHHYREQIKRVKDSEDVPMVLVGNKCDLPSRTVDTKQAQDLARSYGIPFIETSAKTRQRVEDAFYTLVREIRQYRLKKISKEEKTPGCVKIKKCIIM

[1] = tested on: GTPase KRas (Homo sapiens), P01116 [G12C]; assay: Reversible covalent binding affinity to KRAS G12C mutant (unknown origin) incubated for 2 hrs and measured by MALDI-TOF-MS analysis
Chain of GTPase KRas (Homo sapiens), P01116 [G12C] (P01116 whole entry G12C): as above

[2] = molecular target: T1, von Hippel-Lindau disease tumor suppressor/GTPase KRas (Homo sapiens, UniProt P01116+P40337, G12C); assay: Protac activity at VHL/KRAS G12C mutant in human NCI-H23 cells assessed as induction of KRAS G12C mutant degradation by measuring downregulation of phospho-ERK protein level measured after 24 hrs by Western blot analysis; assay type: cell-based
T1 sequence (P01116 whole entry G12C, stated change not applied): as the sequence (P01116 whole entry G12C) above
T1 sequence (P40337 whole entry, stated change not applied): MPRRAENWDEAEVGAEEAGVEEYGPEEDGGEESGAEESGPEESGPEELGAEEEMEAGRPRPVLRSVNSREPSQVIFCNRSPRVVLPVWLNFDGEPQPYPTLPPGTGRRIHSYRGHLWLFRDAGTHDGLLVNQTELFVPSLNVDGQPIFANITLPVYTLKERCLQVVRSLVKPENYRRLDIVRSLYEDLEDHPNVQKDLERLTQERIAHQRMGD

[3] = molecular target: T1, von Hippel-Lindau disease tumor suppressor/GTPase KRas; assay: Protac activity at VHL/KRAS G12C mutant in human NCI-H358 cells assessed as induction of KRAS G12C mutant degradation by measuring downregulation of phospho-ERK protein level measured after 24 hrs by Western blot analysis; assay type: cell-based
[4] = tested on: von Hippel-Lindau disease tumor suppressor/GTPase KRas (Homo sapiens), P01116+P40337 [G12C]; assay: Protac activity at VHL/KRAS G12C mutant in human NCI-H358 cells assessed as induction of KRAS G12C mutant degradation by measuring downregulation of phospho-ERK protein level at 3 uM measured after 24 hrs by Western blot analysis; assay type: cell-based
[5] = tested on: von Hippel-Lindau disease tumor suppressor/GTPase KRas (Homo sapiens), P01116+P40337 [G12C]; assay: Protac activity at VHL/KRAS G12C mutant in human NCI-H23 cells assessed as induction of KRAS G12C mutant degradation by measuring downregulation of phospho-ERK protein level at 3 uM measured after 24 hrs by Western blot analysis; assay type: cell-based
[6] = tested on: von Hippel-Lindau disease tumor suppressor/GTPase KRas (Homo sapiens), P01116+P40337 [G12C]; assay: Protac activity at VHL/KRAS G12C mutant in human NCI-H358 cells assessed as induction of KRAS G12C mutant degradation by measuring downregulation of KRAS G12C protein level at 3 uM measured after 24 hrs by Western blot analysis; assay type: cell-based
[7] = tested on: von Hippel-Lindau disease tumor suppressor/GTPase KRas (Homo sapiens), P01116+P40337 [G12C]; assay: Protac activity at VHL/KRAS G12C mutant in human NCI-H23 cells assessed as induction of KRAS G12C mutant degradation by measuring downregulation of KRAS G12C protein level at 3 uM measured after 24 hrs by Western blot analysis; assay type: cell-based
[8] = molecular target: T1, von Hippel-Lindau disease tumor suppressor/GTPase KRas; assay: Protac activity at VHL/KRAS G12C mutant in human NCI-H358 cells assessed as induction of KRAS G12C mutant degradation by measuring downregulation of KRAS G12C protein level measured after 24 hrs by Western blot analysis; assay type: cell-based
[9] = tested on: von Hippel-Lindau disease tumor suppressor/GTPase KRas (Homo sapiens), P01116+P40337 [G12C]; assay: Protac activity at VHL/KRAS G12C mutant in human NCI-H358 cells assessed as induction of KRAS G12C mutant degradation by measuring downregulation of KRAS G12C protein level at 3 uM in presence of cycloheximide measured after 24 hrs by Western blot analysis; assay type: cell-based
[10] = molecular target: T1, von Hippel-Lindau disease tumor suppressor/GTPase KRas; assay: Protac activity at VHL/KRAS G12C mutant in human NCI-H23 cells assessed as induction of KRAS G12C mutant degradation by measuring downregulation of KRAS G12C protein level measured after 24 hrs by Western blot analysis; assay type: cell-based

Question: How did the IC50 (A549) turn out when `CC(C)C=C(C#N)C(=O)N1CCN(c2nc(OC[C@@H]3CCCN3C)nc3c2CCN(c2cccc4cccc(Cl)c24)C3)C[C@@H]1CC#N` was run?
Answer: 50 µM

Question: What about the IC50 (NCI-H23) of the same compound?
Answer: 3.15 µM

Question: And the IC50 (NCI-H358)?
Answer: 13.7 µM

Question: What about the IC50 (GTPase KRas) of the same compound?
Answer: 0.284 µM

Question: `CN1CCC[C@H]1COc1nc2c(c(N3CCN(C(=O)C(C#N)=CC4CC4)[C@@H](CC#N)C3)n1)CCN(c1cccc3cccc(Cl)c13)C2` was tested. Which IC50 (A549) did it give?
Answer: 13.3 µM

Question: And the Activity [1]?
Answer: Active

Question: And the IC50 (NCI-H23)?
Answer: 5.25 µM

Question: What about the IC50 (NCI-H358) of the same compound?
Answer: 4.7 µM

Question: And the IC50 (GTPase KRas)?
Answer: 0.0254 µM

Question: For `CN1CCC[C@H]1COc1nc2c(c(N3CCN(C(=O)C(C#N)=CC(C)(C)C)[C@@H](CC#N)C3)n1)CCN(c1cccc3cccc(Cl)c13)C2`, which IC50 (A549) is on record?
Answer: 16.1 µM

Question: What about the IC50 (NCI-H23) of the same compound?
Answer: 6.33 µM

Question: What about the IC50 (NCI-H358) of the same compound?
Answer: 0.796 µM

Question: And the IC50 (GTPase KRas)?
Answer: 0.64 µM

Question: What does the source list for `C=CC(=O)N1CCN(c2nc(=O)n(-c3c(C)ccnc3C(C)C)c3nc(-c4c(O)cccc4F)c(F)cc23)[C@@H](C)C1` [SOTORASIB]?
Answer: IC50 (A549): 50 µM; IC50 (NCI-H23): 0.112 µM; IC50 (NCI-H358): 0.0084 µM

Question: Which IC50 (A549) does the source give for `CC=C(C#N)C(=O)N1CCN(c2nc(OC[C@@H]3CCCN3C)nc3c2CCN(c2cccc4cccc(Cl)c24)C3)C[C@@H]1CC#N` here?
Answer: 8.2 µM

Question: And the IC50 (NCI-H23)?
Answer: 9.55 µM

Question: What about the IC50 (NCI-H358) of the same compound?
Answer: 5.13 µM

Question: And the IC50 (GTPase KRas)?
Answer: 0.0963 µM

Question: For `CCC=C(C#N)C(=O)N1CCN(c2nc(OC[C@@H]3CCCN3C)nc3c2CCN(c2cccc4cccc(Cl)c24)C3)C[C@@H]1CC#N`, which IC50 (A549) is on record?
Answer: 25.3 µM

Question: What about the IC50 (NCI-H23) of the same compound?
Answer: 7.4 µM

Question: And the IC50 (NCI-H358)?
Answer: 13.4 µM

Question: What about the IC50 (GTPase KRas) of the same compound?
Answer: 0.271 µM

Question: Which results are given for `Cc1ncsc1-c1ccc(CNC(=O)[C@@H]2C[C@@H](O)CN2C(=O)[C@@H](NC(=O)CCOCCCN2CCC[C@H]2COc2nc3c(c(N4CCN(C(=O)/C(C#N)=C/C5CC5)[C@@H](CC#N)C4)n2)CCN(c2cccc4cccc(Cl)c24)C3)C(C)(C)C)cc1`?
Answer: DC50 [2]: 1.44 µM; DC50 [3]: 1.68 µM; Activity [4]: Active; Activity [5]: Active; IC50 (NCI-H23): 0.244 µM; Activity [6]: Active; IC50 (NCI-H358): 0.154 µM; Activity [7]: Active; DC50 [8]: 3.61 µM; Activity [9]: Active; DC50 [10]: 4.53 µM
